Experimental data from ChEMBL document CHEMBL4680155, “One-pot synthesis and molecular docking of some new spiropyranindol-2-one derivatives as immunomodulatory agents and in vitro antimicrobial potential with DNA gyrase inhibitor” (Eur J Med Chem, 2020).
≈ marks a conversion by molar mass, not a printed value. Calls of active or inactive are those of the source. No cut-off for these calls is given here.

Assays:
Format in all cases: functional
Staphylococcus aureus [1] = assay: Antibacterial activity against Staphylococcus aureus ATCC 29213 assessed as reduction in bacterial growth incubated for 1 day by paper disk diffusion method
Salmonella typhimurium [2] = assay: Antibacterial activity against Salmonella typhi ATCC 6539 assessed as reduction in bacterial growth incubated for 1 day by paper disk diffusion method
Enterococcus faecalis [3] = assay: Antibacterial activity against Enterococcus faecalis ATCC 29212 assessed as reduction in bacterial growth incubated for 1 day by paper disk diffusion method
Candida albicans [4] = assay: Fungicidal activity against Candida albicans ATCC 10231 incubated for 24 hrs followed by transferring to freshly prepared broth medium and measured after 24 hrs by broth microdilution assay; conditions: time 48 hrs
Candida albicans [5] = assay: Antifungal activity against Candida albicans ATCC 10231 assessed as diameter of inhibition zone at 0.5 mg/ml incubated for 24 hrs by agar diffusion method; conditions: read-out: DIZ
Enterococcus faecalis [6] = assay: Antibacterial activity against Enterococcus faecalis ATCC 29212 assessed as diameter of inhibition zone at 0.5 mg/ml incubated for 24 hrs by agar diffusion method; conditions: for zone of inhibition at 500 µg/mL: read-out: DIZ
Escherichia coli [7] = assay: Antibacterial activity against Escherichia coli ATCC 25922 assessed as reduction in bacterial growth incubated for 1 day by paper disk diffusion method
Staphylococcus aureus [8] = assay: Antibacterial activity against Staphylococcus aureus ATCC 29213 assessed as diameter of inhibition zone at 0.5 mg/ml incubated for 24 hrs by agar diffusion method; conditions: for zone of inhibition at 500 µg/mL: read-out: DIZ
Aspergillus brasiliensis [9] = assay: Antifungal activity against Aspergillus brasiliensis ATCC 16404 assessed as reduction in bacterial growth incubated for 3 days by paper disk diffusion method; conditions: ATCC 16404, 72 h, time 3 day
Salmonella typhimurium [10] = assay: Antibacterial activity against Salmonella typhi ATCC 6539 assessed as diameter of inhibition zone at 0.5 mg/ml incubated for 24 hrs by agar diffusion method; conditions: for zone of inhibition at 500 µg/mL: Salmonella enterica, read-out: DIZ
Aspergillus brasiliensis [11] = assay: Fungicidal activity against Aspergillus brasiliensis ATCC 16404 incubated for 72 hrs followed by transferring to freshly prepared broth medium and measured after 24 hrs by broth microdilution assay; conditions: time 96 hrs
Candida albicans [12] = assay: Antifungal activity against Candida albicans ATCC 10231 assessed as reduction in bacterial growth incubated for 1 day by paper disk diffusion method; conditions: ATCC 10231, 24 h
Escherichia coli [13] = assay: Antibacterial activity against Escherichia coli ATCC 25922 assessed as diameter of inhibition zone at 0.5 mg/ml incubated for 24 hrs by agar diffusion method; conditions: for zone of inhibition at 500 µg/mL: read-out: DIZ
Aspergillus brasiliensis [14] = assay: Antifungal activity against Aspergillus brasiliensis ATCC 16404 assessed as diameter of inhibition zone at 0.5 mg/ml incubated for 72 hrs by agar diffusion method; conditions: read-out: DIZ
[15] = Salmonella enterica subsp. enterica serovar Typhimurium
[16] = Salmonella enterica, ATCC 6539, 24 h

Compound | zone of inhibition at 500 µg/mL (Candida albicans [5]) [mm] | MIC (Aspergillus brasiliensis [9]) [µg/mL] | MIC (Candida albicans [12]) [µg/mL] | MIC (Staphylococcus aureus [1]; ATCC 29213, 24 h) [µg/mL] | MIC (Salmonella typhimurium [2]; [16]) [µg/mL] | MIC (Enterococcus faecalis [3]; ATCC 29212, 24 h) [µg/mL] | zone of inhibition at 500 µg/mL (Enterococcus faecalis [6]) [mm] | MIC (Escherichia coli [7]; ATCC 25922, 24 h) [µg/mL] | zone of inhibition at 500 µg/mL (Staphylococcus aureus [8]) [mm] | zone of inhibition at 500 µg/mL (Salmonella typhimurium [10]) [mm] | zone of inhibition at 500 µg/mL (Aspergillus brasiliensis [14]) [mm] | zone of inhibition at 500 µg/mL (Escherichia coli [13]) [mm] | further results
C[C@@H]1[C@H](O)[C@@H](C)/C=C/C=C/C=C/C=C/C=C/C=C/C=C/[C@H](O[C@@H]2O[C@H](C)[C@@H](O)[C@H](N)[C@@H]2O)C[C@@H]2O[C@](O)(C[C@@H](O)C[C@@H](O)[C@H](O)CC[C@@H](O)C[C@@H](O)CC(=O)O[C@H]1C)C[C@H](O)[C@H]2C(=O)O [AMPHOTERICIN B] | 22 | 31.2 (≈ 33.8 µM) | 15.6 (≈ 16.9 µM) |  |  |  |  |  |  |  |  |  | MIC (Staphylococcus aureus [1]): inactive; MIC (Salmonella typhimurium [2]; [15]): inactive; MIC (Enterococcus faecalis [3]): inactive; MFC (Candida albicans [4]): 34.6 µg/mL (≈ 37.5 µM); diameter of the inhibition zone (DIZ) (Enterococcus faecalis [6]): inactive; MIC (Escherichia coli [7]): inactive; diameter of the inhibition zone (DIZ) (Staphylococcus aureus [8]): inactive; diameter of the inhibition zone (DIZ) (Salmonella typhimurium [10]; [15]): inactive; MFC (Aspergillus brasiliensis [11]): 65.6 µg/mL (≈ 71 µM); diameter of the inhibition zone (DIZ) (Escherichia coli [13]): inactive
CCOC(=O)C1=C(N)OC(c2ccccc2)=C(C(C)=O)C12C(=O)Nc1ccc(S(=O)(=O)N3CCCCC3)cc12 (stereo not drawn) | 13 | 125 (≈ 227 µM) | 62.5 (≈ 113 µM) | 88.3 (≈ 160 µM) | 88.3 (≈ 160 µM) | 17.8 (≈ 32.2 µM) | 20 | 17.8 (≈ 32.2 µM) | 18 | 15 | 17 | 20 | 
CCOC(=O)C1=C(C)OC(N)=C(C#N)C12C(=O)Nc1ccc(S(=O)(=O)N3CCCCC3)cc12 (stereo not drawn) | 15 | 143 (≈ 302 µM) | 62.5 (≈ 132 µM) | 83.3 (≈ 176 µM) | 125 (≈ 265 µM) | 71.1 (≈ 150 µM) | 18 | 35.5 (≈ 75.2 µM) | 17 | 13 | 10 | 17 | 
CCOC(=O)C1=C(c2ccccc2)OC(N)=C(C#N)C12C(=O)Nc1ccc(S(=O)(=O)N3CCOCC3)cc12 (stereo not drawn) | 16 | 125 (≈ 233 µM) | 62.5 (≈ 116 µM) | 125 (≈ 233 µM) | 133 (≈ 248 µM) | 7.81 (≈ 14.6 µM) | 19 | 88.3 (≈ 165 µM) | 13 | 11 | 12 | 14 | 
CCOC(=O)C1=C(C)OC(N)=C(C(=O)OCC)C12C(=O)Nc1ccc(S(=O)(=O)N3CCCCC3)cc12 (stereo not drawn) | 12 | 133 (≈ 257 µM) | 88.3 (≈ 170 µM) | 88.3 (≈ 170 µM) | 88.3 (≈ 170 µM) | 35.5 (≈ 68.4 µM) | 19 | 71.1 (≈ 137 µM) | 13 | 13 | 12 | 12 | 
CCOC(=O)C1=C(C)OC(N)=C(C(=O)OCC)C12C(=O)Nc1ccc(S(=O)(=O)N3CCOCC3)cc12 (stereo not drawn) | 13 | 133 (≈ 256 µM) | 125 (≈ 240 µM) | 125 (≈ 240 µM) | 142 (≈ 273 µM) | 62.5 (≈ 120 µM) | 16 | 31.2 (≈ 59.9 µM) | 14 | 10 | 11 | 18 | 
